From US5504213A, “Benzofuranyl-and-thiophenyl-alkanecarboxyclic acid derivatives” (Bayer Aktiengesellschaft, priority 1993, dated 1996) come the findings set out here.

For assay [1], the system named is PMN cyclic AMP. Description: Measurement of PMN cyclic AMP concentration (human PMN, FMLP-stimulated). The assay is classed as cell-based. The note with it: 4×10^-8 M FMLP, control 100, expressed as percentage of vehicle control, read-out: % elevation of cAMP at 1 μM (control 100). On the procedure: 1. Preparation of human PMN
Blood was taken from healthy subjects by venous puncture and neutrophils were purified by dextran sedimentation and resuspended in the buffered medium.
3. Measurement of PMN cyclic AMP concentration
The compounds according to the invention were incubated with 3.7×10^6 PMN for 5 min at 37° C. before addition of 4×10^-8 M FMLP. After 6 min protein was precipitated by the addition of 1% v/v conc. HCl in 96% v/v ethanol containing 0.1 mM EDTA. After centrifugation the ethanolic extracts were evaporated to dryness under N2 and resuspended in 50 mM Tris/HCl pH 7.4 containing 4 mM EDTA. The cyclic AMP concentration in the extracts was determined using a cyclic AMP binding protein assay supplied by Amersham International plc. Cyclic AMP concentrations were expressed as percentage of vehicle containing control incubations.

Assay [2] relates to FMLP-induced skin oedama of guinea pigs. Description: Effect of intravenously administered compounds on the FMLP-induced skin oedema of guinea pigs. The assay is classed as in vivo. As to conditions: guinea pig, 1 mg/kg. On the procedure: 5. Effect of intravenously administered compounds on the FMLP-induced skin oedama of guinea pigs.
Guinea-pigs (600-800 g) were anaesthetized with pentobarbitone sodium (40 mg/kg, i.p.) and injected (i.V.) with a 0.5 ml mixture of pentamine sky blue (5% W/V) and ^125 I-HSA ([…]). 10 minutes later 3 intradermal injections of FMLP (10 μg/site), 1 injection of histamine (1 μg/site) and 1 injection of vehicle (100 μl of 0.2% DMSO V/V in Hanks Buffered salt solution) were made on the left hand side of the animal (preinjection sites). 5 minutes later the drug (1 ml/kg) or the vehicle (50% PEG 400 V/V in distilled water, 1 ml/kg) was administered (i.V.). 10 minutes later an identical pattern of intradermal injections was made on the opposite flank of the animal (post-injection sites). These responses were allowed to develop for 15 minutes before the animal was sacrificed and a blood sample taken.
Skin sites and plasma samples were counted for 1 minute on a gamma counter and the degree of oedema calculated as μl plasma/skin site. Statistical analysis was done by a paired t-test on the mean of the 3 pre-injection site values of μl plasma obtained for FMLP/animal. The percentage inhibition of drug or vehicle was calculated as follows [formula]

Assay [3] relates to FMLP-induced skin oedema of guinea-pigs. Description: Effect of orally administered compounds on the FMLP-induced skin oedema of guinea-pigs in vivo. As to conditions: guinea pig, 25 mg/kg. On the procedure: 6. Effect of orally administered compounds on the FMLP-induced skin oedema
of guinea-pigs in vivo-Test's p.o.
Guinea-pits (600-800 g) were fasted overnight and orally treated with vehicle ([…]; […]) 40 minutes later the animals were anasthetized with pentobarbitone sodium (40 mg/kg; i.p.) and 0.6 ml of a mixture of pontamine sky blue (5% w/v) and ^125 I-HSA (1 μci/animal) was injected (i.V.). 90 minutes after oral pretreatment FMLP (50 μg/site) was injected (i.d.) at 4 different sites, histamine (1 μg/site) and vehicle (100 μl, 1% DMSO v/v in Hanks buffered salt solution) were both injected (i.d.) at 2 different sites.
The responses were allowed to develop for 30 minutes before the animal was sacrificed and a blood sample taken.
Skin sites and plasma samples were counted for 1 minute on a gamma counter. The degree of oedema was calculated as μl plasma/skin site.
Statistical analysis was carried out by a Mann-Whitney U-test on the mean of the 4 values of μl Plasma obtained for FMLP/animal.

The structures appear in SMILES notation.

On to `COC(=O)CCc1c(C(=O)c2ccc(Cl)cc2)oc2cc(O)ccc12` [Example 30], for which, in assay [1], the activity at 1 µM was 394%. Besides, the “% inhibition (FMLP-induced skin oedema, i.v.)” value in assay [2] is listed as 40.0%. For the same compound, the “% inhibition (FMLP-induced skin oedema, p.o.)” value in assay [3] was 46%.
